Columns and labels:
[1] = system: Karpas-422 cell lines; assay: Karpas-422 viability assay (Cell Titer-Glo); type: cell-based; settings: Homo sapiens, Cell Titer-Glo on Day 8, cells split every 4 days
Method: Karpas-422 cell lines were obtained from DSMZ (Braunschweig, Germany) and were grown in RPMI-1640 media. All media contained 10% fetal bovine serum (FBS) and 1% penicillin/streptomycin (Invitrogen). 20K cells per well were plated onto 96 well compound coated plates. Cells were split and seeded at original plating density (based on the DMSO well counts) every 4 days into plates containing fresh EZH2 inhibitors. Relative cell numbers were assessed by Cell Titer-Glo luminescent cell viability assay (Promega) on Day 8. GraphPad Prism 5 was used for curve fitting and GI50 values were reported.

[2] = system: H3K27me3 in Hela cells; assay: H3K27me3 Alpha Hela Assay (AlphaLISA); type: cell-based; settings: Homo sapiens, 72 hrs
Method: H3K27me3 Alpha Hela Assay (AlphaLISA). Ten different doses of each test compound (in a series of 3-fold dilutions) were plated in duplicate 384-well tissue culture treated plates (Catalog #6007680; Perkin Elmer, Waltham, MA). Hela cells grown in culture were trypsinized and counted using a Countess® cell counter (Catalog #C10281; Life Technologies, Grand Island, NY). Cell were diluted to 67,000 cells per mL in10% DMEM (Catalog #10569-010 Life Technologies, Grand Island, NY) and 15 μL (1,000 cells) were plated into each well using the Biotek MicroFlo™ Select Dispenser (BioTek Instruments, Inc. Vermont, USA),) of the 384-well plate. Plates were incubated at 37° C./5% CO2 for 72 hrs. One of the duplicate plates was processed for HeLa assay and the other for viability. […] The plates were then read using an EnVision-Alpha Reader (model #2104 Perkin Elmer; Waltham, MA).
Cell viability was assayed by adding 15 μL of Cell Titer Glo ((Catalog #G9241 Promega Madison, WI) to each well with cells with media. The plates were incubated at RT for 15-20 minutes on a plate shaker at low speed. The plates were then read using an EnVision-Alpha Reader (model #2104 Perkin Elmer; Waltham, MA).

[3] = molecular target: T1, PRC2 containing wt EZH2 (Homo sapiens, UniProt Q15910); assay: EZH2 biochemical assay (IC50), incorporation of 3H-SAM into a biotinylated H3 peptide; settings: 30 pM PRC2 (wt EZH2, pentameric complex), pre-incubated 3-5 h, reaction 18-22 h
T1 construct: made in house
Method: EZH2 biochemical assay (IC50): Compound potencies were assessed through incorporation of ^3H-SAM into a biotinylated H3 peptide. […] Quenching was accomplished by addition of 20 μl of STOP solution (50 mM Tris (pH 8.5), 200 mM EDTA, 2 mM SAH). 35 μl of the quenched solution was transferred to streptavidin coated FlashPlates (PerkinElmer), incubated 1-2 h, washed, and read in a TopCount Reader (PerkinElmer).

T1 sequence (Q15910 whole entry): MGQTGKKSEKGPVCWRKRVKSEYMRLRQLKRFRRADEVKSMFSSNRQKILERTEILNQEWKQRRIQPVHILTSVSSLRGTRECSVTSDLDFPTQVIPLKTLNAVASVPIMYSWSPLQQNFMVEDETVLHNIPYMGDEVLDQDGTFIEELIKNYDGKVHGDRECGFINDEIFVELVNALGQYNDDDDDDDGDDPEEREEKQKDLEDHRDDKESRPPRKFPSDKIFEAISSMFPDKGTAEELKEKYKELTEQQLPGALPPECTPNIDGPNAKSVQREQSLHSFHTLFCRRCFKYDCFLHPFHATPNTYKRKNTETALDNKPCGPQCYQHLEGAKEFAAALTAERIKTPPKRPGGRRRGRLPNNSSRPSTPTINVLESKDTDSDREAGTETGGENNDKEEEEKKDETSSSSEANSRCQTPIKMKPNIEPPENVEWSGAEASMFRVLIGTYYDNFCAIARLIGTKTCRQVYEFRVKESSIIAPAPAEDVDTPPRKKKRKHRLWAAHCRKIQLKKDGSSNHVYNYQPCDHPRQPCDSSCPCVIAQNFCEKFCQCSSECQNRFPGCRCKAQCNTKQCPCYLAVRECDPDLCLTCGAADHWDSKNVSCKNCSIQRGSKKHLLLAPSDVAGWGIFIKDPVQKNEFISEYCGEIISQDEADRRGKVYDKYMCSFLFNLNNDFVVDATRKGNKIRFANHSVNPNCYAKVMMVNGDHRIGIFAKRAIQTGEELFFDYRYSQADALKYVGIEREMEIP
T1 sequence (O75530 whole entry partner): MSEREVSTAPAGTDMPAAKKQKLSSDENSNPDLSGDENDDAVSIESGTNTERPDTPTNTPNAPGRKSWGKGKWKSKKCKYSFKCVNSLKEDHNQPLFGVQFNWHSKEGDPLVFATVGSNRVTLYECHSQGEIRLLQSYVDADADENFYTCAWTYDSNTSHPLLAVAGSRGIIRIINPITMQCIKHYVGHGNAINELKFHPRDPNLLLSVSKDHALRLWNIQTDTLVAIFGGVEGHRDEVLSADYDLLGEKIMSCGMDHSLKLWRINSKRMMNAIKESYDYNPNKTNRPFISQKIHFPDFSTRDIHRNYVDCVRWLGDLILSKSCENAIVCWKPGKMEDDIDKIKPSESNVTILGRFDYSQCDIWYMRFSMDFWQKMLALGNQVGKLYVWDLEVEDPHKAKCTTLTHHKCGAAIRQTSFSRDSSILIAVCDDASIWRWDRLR
T1 sequence (Q15022 whole entry partner): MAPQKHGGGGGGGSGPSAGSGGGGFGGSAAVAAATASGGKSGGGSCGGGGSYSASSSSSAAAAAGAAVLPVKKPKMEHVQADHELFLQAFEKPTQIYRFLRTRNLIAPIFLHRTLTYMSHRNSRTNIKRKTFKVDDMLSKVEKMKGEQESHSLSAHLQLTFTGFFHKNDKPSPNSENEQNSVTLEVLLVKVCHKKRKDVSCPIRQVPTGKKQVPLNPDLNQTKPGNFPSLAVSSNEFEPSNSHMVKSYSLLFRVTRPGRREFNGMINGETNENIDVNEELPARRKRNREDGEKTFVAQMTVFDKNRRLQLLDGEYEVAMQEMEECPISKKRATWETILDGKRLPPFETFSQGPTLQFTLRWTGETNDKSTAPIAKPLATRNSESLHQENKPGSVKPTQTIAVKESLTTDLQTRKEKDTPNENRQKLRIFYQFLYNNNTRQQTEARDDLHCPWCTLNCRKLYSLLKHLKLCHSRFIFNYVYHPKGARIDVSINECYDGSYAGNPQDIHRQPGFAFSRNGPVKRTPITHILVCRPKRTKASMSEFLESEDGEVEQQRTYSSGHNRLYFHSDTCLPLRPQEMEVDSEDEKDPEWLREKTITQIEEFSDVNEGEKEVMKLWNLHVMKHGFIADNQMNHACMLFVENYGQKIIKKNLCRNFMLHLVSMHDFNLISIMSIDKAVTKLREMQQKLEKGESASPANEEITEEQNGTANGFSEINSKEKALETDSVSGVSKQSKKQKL
T1 sequence (Q09028 whole entry partner): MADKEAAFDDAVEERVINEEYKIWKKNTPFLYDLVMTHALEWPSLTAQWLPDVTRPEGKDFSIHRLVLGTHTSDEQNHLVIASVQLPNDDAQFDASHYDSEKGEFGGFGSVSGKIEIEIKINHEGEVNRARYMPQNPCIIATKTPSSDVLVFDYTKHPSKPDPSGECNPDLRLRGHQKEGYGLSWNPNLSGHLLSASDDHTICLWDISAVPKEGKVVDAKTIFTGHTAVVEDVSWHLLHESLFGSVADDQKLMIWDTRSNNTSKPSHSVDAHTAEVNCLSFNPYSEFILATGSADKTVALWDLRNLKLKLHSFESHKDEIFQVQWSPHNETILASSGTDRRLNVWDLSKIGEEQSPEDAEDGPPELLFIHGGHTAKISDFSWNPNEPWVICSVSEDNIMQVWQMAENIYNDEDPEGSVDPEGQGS
T1 sequence (Q6ZN18 whole entry partner): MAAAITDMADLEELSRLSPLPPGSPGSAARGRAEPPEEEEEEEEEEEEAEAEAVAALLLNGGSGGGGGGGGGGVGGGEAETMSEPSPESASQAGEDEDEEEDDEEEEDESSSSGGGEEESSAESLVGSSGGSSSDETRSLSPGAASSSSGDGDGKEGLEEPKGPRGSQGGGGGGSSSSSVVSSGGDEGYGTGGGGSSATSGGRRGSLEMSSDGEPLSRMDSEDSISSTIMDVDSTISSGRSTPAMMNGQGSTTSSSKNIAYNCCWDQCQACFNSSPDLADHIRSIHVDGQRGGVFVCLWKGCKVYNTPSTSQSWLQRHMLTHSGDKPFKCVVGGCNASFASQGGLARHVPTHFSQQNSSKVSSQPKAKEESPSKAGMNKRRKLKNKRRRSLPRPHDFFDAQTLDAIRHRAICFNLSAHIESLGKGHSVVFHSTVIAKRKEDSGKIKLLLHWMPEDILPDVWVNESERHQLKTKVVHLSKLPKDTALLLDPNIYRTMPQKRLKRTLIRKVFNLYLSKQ

Compound	GI50 [1] [nM]	EC50 [2] [nM]	IC50 [3] [nM]
CSc1cc(C)[nH]c(=O)c1CN1CCc2c(Cl)c3c(c(C)c2C1=O)OC(C)([C@H]1CC[C@H](N(C)C)CC1)O3 (single isomer, unassigned) [Example 1, Peak 1, 9-Chloro-2-(Trans-4-(Dimethylamino)Cyclohexyl)-2,4-Dimethyl-6-((6-Methyl-4-(Methylthio)-2-Oxo-1,2-Dihydropyridin-3-Yl)Methyl)-7,8-Dihydro-[1,3]Dioxolo[4,5-g]Isoquinolin-5(6H)-One]	5.7	0.849 to 1.13	–
CSc1cc(C)[nH]c(=O)c1Cn1ccc2c(Cl)c3c(c(C)c2c1=O)OC(C)([C@H]1CC[C@H](N(C)C)CC1)O3 (mixture of isomers) [Example 2, 9-Chloro-2-(Trans-4-(Dimethylamino)Cyclohexyl)-2,4-Dimethyl-6-((6-Methyl-4-(Methylthio)-2-Oxo-1,2-Dihydropyridin-3-Yl)Methyl)-[1,3]Dioxolo[4,5-g]Isoquinolin-]	–	–	0.061 to 0.073

From US11919912B2, “Modulators of methyl modifying enzymes, compositions and uses thereof” (Constellation Pharmaceuticals, Inc., priority 2018, dated 2024)
